The results in this text go back to patent publication US20080255060A1, “Ester Linked Macrolides Useful For The Treatment of Microbial Infections” (priority 2004, published 2008).

Holding throughout (assay): MIC, standard microtiter broth serial dilution test
Common to all, as to assay type: cell-based

Assay [1] has as its system M. catarrhalis ATCC 0324. The conditions noted are these: Moraxella catarrhalis, ATCC0324.
Assay [2] relates to S. pyogenes 0542. The settings on record: Streptococcus pyogenes.
The test system of assay [3] is S. aureus Smith ATCC 0329. The conditions noted are these: Staphylococcus aureus, ATCC0329.
Assay [4] concerns S. pneumoniae 0541. The settings on record: Streptococcus pneumoniae.
Assay [5] concerns E. faecalis ATCC 0004. The conditions noted are these: Enterococcus faecalis, ATCC0004.
Assay [6] deals with H. influenzae ATCC 0529. The conditions noted are these: Haemophilus influenzae, ATCC0529.

Each structure is given as a SMILES string.

For the compound `CCOC(=O)c1cn(CC)c2ccc(C#CCN3CCN(CCC(=O)O[C@H]4[C@H](C)OC(O[C@H]5[C@H](C)[C@@H](OC6O[C@H](C)C[C@H](N(C)C)[C@H]6O)[C@](C)(OC)C[C@@H](C)C(=O)[C@H](C)[C@@H](O)[C@](C)(O)[C@@H](CC)OC(=O)[C@@H]5C)C[C@@]4(C)OC)CC3)cc2c1=O` (some centres unmarked) [Example 3, 4″-O-(3-{4-[3-(3-Ethoxycarbonyl-1-ethyl-4-oxo-1,4-dihydro-quinolin-6-yl)-prop-2-ynyl]-piperazin-1-yl}-propionyl)-6-O-methyl-erythromycin A], the MIC is no more than 2 µg/mL in assay [1]; no more than 1 µg/mL in assay [2]; no more than 1 µg/mL in assay [3]; no more than 1 µg/mL in assay [4]; no more than 1 µg/mL in assay [5]; no more than 2 µg/mL in assay [6].

Regarding `CC[C@H]1OC(=O)[C@H](C)[C@@H](O[C@H]2C[C@@](C)(OC)[C@@H](OC(=O)CCN3CCN(CC#Cc4ccc5c(c4)c(=O)c(C(=O)O)cn5CC)CC3)[C@H](C)O2)[C@H](C)[C@@H](O[C@@H]2O[C@H](C)C[C@H](N(C)C)[C@H]2O)[C@](C)(O)C[C@@H](C)CN(C)[C@H](C)[C@@H](OC)[C@]1(C)O` [Example 4], the MIC in assay [1] was no more than 2 µg/mL; in assay [2] it was no more than 1 µg/mL; in assay [3], no more than 1 µg/mL; in assay [4] it was no more than 1 µg/mL; in assay [5] it was no more than 1 µg/mL; in assay [6] it was no more than 2 µg/mL.

On to `CC[C@H]1OC(=O)[C@H](C)[C@@H](O[C@H]2C[C@@](C)(OC)[C@@H](OC(=O)CCN3CCN(CCCc4ccc5c(c4)c(=O)c(C(=O)O)cn5CC)CC3)[C@H](C)O2)[C@H](C)[C@@H](O[C@@H]2O[C@H](C)C[C@H](N(C)C)[C@H]2O)[C@](C)(O)C[C@@H](C)CN(C)[C@H](C)[C@@H](OC)[C@]1(C)O` [Example 5], for which the MIC in assay [2], in assay [3], in assay [4] and in assay [5] was no more than 1 µg/mL in each case.

Take `CC[C@H]1OC(=O)[C@H](C)[C@@H](O[C@H]2C[C@@](C)(OC)[C@@H](OC(=O)CCOCCOCCNc3cc4c(=O)c(C(=O)O)cn(C5CC5)c4cc3Cl)[C@H](C)O2)[C@H](C)[C@@H](O[C@@H]2O[C@H](C)C[C@H](N(C)C)[C@H]2O)[C@](C)(OC)C[C@@H](C)C(=O)[C@H](C)[C@@H](O)[C@]1(C)O` [Example 7, 4″-O-(3-{2-[2-(3-Carboxy-7-chloro-1-cyclopropyl-4-oxo-1,4-dihydro-quinolin-6-ylamino)-ethoxy]-ethoxy}-propionyl)-6-O-methyl-erythromycin A]: the MIC in assay [2], in assay [3], in assay [4] and in assay [5] was no more than 1 µg/mL in each case.

Consider `CC[C@H]1OC(=O)[C@H](C)[C@@H](OC2C[C@@](C)(OC)[C@@H](OC(=O)CNC(=O)CCOCCNc3c(F)cc4c(=O)c(C(=O)O)cn(C5CC5)c4c3OC)[C@H](C)O2)[C@H](C)[C@@H](O[C@@H]2O[C@H](C)C[C@H](N(C)C)[C@H]2O)[C@](C)(O)C[C@@H](C)CN(C)[C@H](C)[C@@H]2OC(=O)O[C@]12C` (some centres unmarked) [Example 14, 4″-O-(2-{3-[2-(3-Carboxy-6-fluoro-1-cyclopropyl-8-methoxy-4-oxo-1,4-dihydro-quinolin-7-ylamino)-ethoxy]-propionylamino}-acetyl)-azithromycin 11,12-cyclic carbonate], for which the MIC in assay [1] is no more than 2 µg/mL; in assay [2] it was no more than 1 µg/mL; in assay [3], no more than 1 µg/mL; in assay [4], no more than 1 µg/mL; in assay [5] it was no more than 1 µg/mL; in assay [6], no more than 2 µg/mL.

`CC[C@H]1OC(=O)[C@H](C)[C@@H](OC2C[C@@](C)(OC)[C@@H](OC(=O)CCNCCOCC#Cc3ccc4c(c3)c(=O)c(C(=O)O)cn4CC)[C@H](C)O2)[C@H](C)[C@@H](OC2O[C@H](C)C[C@H](N(C)C)[C@H]2O)[C@](C)(O)C[C@@H](C)CN(C)[C@H](C)[C@@H](OC)[C@]1(C)O` (some centres unmarked) [Example 23, 11-O-Methyl-4″-O-(3-{2-[3-(3-Carboxy-1-ethyl-4-oxo-1,4-dihydro-quinolin-6-yl)-prop-2-ynyloxy]-ethylamino}-propionyl)-azithromycin]: the MIC is no more than 2 µg/mL in assay [1]; no more than 1 µg/mL in assay [2]; no more than 1 µg/mL in assay [3]; no more than 1 µg/mL in assay [4]; no more than 1 µg/mL in assay [5]; no more than 2 µg/mL in assay [6].

`CC[C@H]1OC(=O)[C@H](C)[C@@H](OC2C[C@@](C)(OC)[C@@H](OC(=O)CCNCCOCCCc3ccc4c(c3)c(=O)c(C(=O)O)cn4CC)[C@H](C)O2)[C@H](C)[C@@H](OC2O[C@H](C)C[C@H](N(C)C)[C@H]2O)[C@](C)(O)C[C@@H](C)CN(C)[C@H](C)[C@@H](OC)[C@]1(C)O` (some centres unmarked) [Example 24, 11-O-Methyl-4″-O-(3-{2-[3-(3-Carboxy-1-ethyl-4-oxo-1,4-dihydro-quinolin-6-yl)-propoxy]-ethylamino}-propionyl)-azithromycin]: the MIC was no more than 2 µg/mL in assay [1]; no more than 1 µg/mL in assay [2]; no more than 1 µg/mL in assay [3]; no more than 1 µg/mL in assay [4]; no more than 1 µg/mL in assay [5]; no more than 2 µg/mL in assay [6].

In the case of `CC[C@H]1OC(=O)[C@H](C)[C@@H](O[C@H]2C[C@@](C)(OC)[C@@H](OC(=O)CCOCCOCCNc3cc4c(=O)c(C(=O)O)cn(C5CC5)c4cc3Cl)[C@H](C)O2)[C@H](C)[C@@H](O[C@@H]2O[C@H](C)C[C@H](N(C)C)[C@H]2O)[C@](C)(OC)C[C@@H](C)C(=O)[C@H](C)[C@H]2NC(=O)O[C@@]21C` [Example 26, 4″-O-(3-{2-[2-(3-Carboxy-7-chloro-1-cyclopropyl-4-oxo-1,4-dihydro-quinolin-6-ylamino)-ethoxy]-ethoxy}-propionyl)-6-O-methyl-erythromycin A 11,12-cyclic carbamate], the MIC in assay [1] is no more than 2 µg/mL; in assay [2], no more than 1 µg/mL; in assay [3] it was no more than 1 µg/mL; in assay [4] it was no more than 1 µg/mL; in assay [5], no more than 1 µg/mL; in assay [6], no more than 2 µg/mL.

For the compound `CC[C@H]1OC(=O)[C@H](C)[C@@H](O[C@H]2C[C@@](C)(OC)[C@@H](OC(=O)CCOCCOCCNc3cc4c(cc3F)c(=O)c(C(=O)O)cn4C3CC3)[C@H](C)O2)[C@H](C)[C@@H](O[C@@H]2O[C@H](C)C[C@H](N(C)C)[C@H]2O)[C@](C)(OC)C[C@@H](C)C(=O)[C@H](C)[C@@H](O)[C@]1(C)O` [Example 27, 4″-O-(3-{2-[2-(3-Carboxy-6-fluoro-1-cyclopropyl-4-oxo-1,4-dihydro-quinolin-7-ylamino)-ethoxy]-ethoxy}-propionyl)-6-O-methyl-erythromycin A], the MIC is no more than 2 µg/mL in assay [1]; no more than 1 µg/mL in assay [2]; no more than 1 µg/mL in assay [3]; no more than 1 µg/mL in assay [4]; no more than 1 µg/mL in assay [5]; no more than 2 µg/mL in assay [6].

Consider `CC[C@H]1OC(=O)[C@H](C)[C@@H](OC2C[C@@](C)(OC)[C@@H](OC(=O)CCOCCOCCOc3ccc4c(=O)c(C(=O)O)cn(C5CC5)c4c3)[C@H](C)O2)[C@H](C)[C@@H](OC2O[C@H](C)C[C@H](N(C)C)[C@H]2O)[C@](C)(O)C[C@@H](C)CN(C)[C@H](C)[C@@H](O)[C@]1(C)O` (some centres unmarked) [Example 35, 4″-O-(3-{2-[2-(3-Carboxy-1-cyclopropyl-4-oxo-1,4-dihydro-quinolin-7-yloxy)-ethoxy]-ethoxy}-propionyl)-azithromycin], for which the MIC was no more than 2 µg/mL in assay [1]; no more than 1 µg/mL in assay [2]; no more than 1 µg/mL in assay [3]; no more than 1 µg/mL in assay [4]; no more than 1 µg/mL in assay [5]; no more than 2 µg/mL in assay [6].

Turning to `CC[C@H]1OC(=O)[C@H](C)[C@@H](OC2C[C@@](C)(OC)[C@@H](OC(=O)CCNCCOCC#Cc3ccc4c(c3)c(=O)c(C(=O)O)cn4CC)[C@H](C)O2)[C@H](C)[C@@H](OC2O[C@H](C)C[C@H](N(C)C)[C@H]2O)[C@](C)(OC)C[C@@H](C)C(=O)[C@H](C)[C@@H](O)[C@]1(C)O` (some centres unmarked) [Example 36, 4″-O-(3-{2-[3-(3-carboxy-1-ethyl-4-oxo-1,4-dihydro-quinolin-6-yl)-prop-2-ynyloxy]-ethylamino}-propionyl)-6-O-methyl-erythromycin A], the MIC is no more than 2 µg/mL in assay [1]; no more than 1 µg/mL in assay [2]; no more than 1 µg/mL in assay [3]; no more than 1 µg/mL in assay [4]; no more than 1 µg/mL in assay [5]; no more than 2 µg/mL in assay [6].

For `CC[C@H]1OC(=O)[C@H](C)[C@@H](OC2C[C@@](C)(OC)[C@@H](OC(=O)CCOCCOCCOc3ccc4c(=O)c(C(=O)O)cn(C5CC5)c4c3)[C@H](C)O2)[C@H](C)[C@@H](O[C@@H]2O[C@H](C)C[C@H](N(C)C)[C@H]2O)[C@](C)(OC)C[C@@H](C)C(=O)[C@H](C)[C@@H](O)[C@]1(C)O` (some centres unmarked) [Example 38, 4″-O-(3-{2-[2-(3-Carboxy-1-cyclopropyl-4-oxo-1,4-dihydro-quinolin-7-yloxy)-ethoxy]-ethoxy}-propionyl)-6-O-methyl-erythromycin A], the MIC in assay [1] is no more than 2 µg/mL; in assay [2] it was no more than 1 µg/mL; in assay [3], no more than 1 µg/mL; in assay [4], no more than 1 µg/mL; in assay [5], no more than 1 µg/mL; in assay [6], no more than 2 µg/mL.

For the compound `CC[C@H]1OC(=O)[C@H](C)[C@@H](O[C@H]2C[C@@](C)(OC)[C@@H](OC(=O)CCOCCOCCNc3cc4c(=O)c(C(=O)O)cn(C5CC5)c4cc3N(C)C)[C@H](C)O2)[C@H](C)[C@@H](OC2O[C@H](C)C[C@H](N(C)C)[C@H]2O)[C@](C)(O)C[C@@H](C)CN(C)[C@H](C)[C@@H](O)[C@]1(C)O` (some centres unmarked) [Example 48, 4″-O-(3-{2-[2-(3-Carboxy-1-cyclopropyl-7-dimethylamino-4-oxo-1,4-dihydro-quinolin-6-ylamino)-ethoxy]-ethoxy}-propionyl)azithromycin], the MIC in assay [1] was no more than 2 µg/mL; in assay [2], no more than 1 µg/mL; in assay [3] it was no more than 1 µg/mL; in assay [4] it was no more than 1 µg/mL; in assay [5], no more than 1 µg/mL; in assay [6], no more than 2 µg/mL.
